Data: paper PMC3038857, “Using Nuclear Receptor Activity to Stratify Hepatocarcinogens” (PLoS ONE, 2011)

Assays:
[1] = test system: HMGCS2; experiment: CLZD_HMGCS2: Change in expression of HMGCS2 (primary human hepatocytes); format: cell-based; settings: 24 hr
Protocol: This is a collection of multiplexed gene expression assays focused on Phase I and II xenobiotic metabolizing enzymes and transporters. Human primary cell cultures were treated with chemicals at 5 concentrations (0.004-40 [drawing 42] M) for 6, 24 and 48 hr. Concentration- and time-response profiles of chemicals were measured by the expression of key nuclear receptor target genes, activities of CYP1A enzymes (EROD), and cell morphology. Fourteen gene targets were monitored by quantitative nuclease protection assay including: six representative cytochrome P-450 genes, four hepatic transporters, three Phase II conjugating enzymes, and one endogenous metabolism gene involved in cholesterol synthesis. The target genes associated with nuclear receptor pathways are as follows: [drawing 43] and [drawing 44] with [drawing 45]; [drawing 46] , [drawing 47] , [drawing 48] , [drawing 49] , [drawing 50] and [drawing 51] with [drawing 52]; [drawing 53] , [drawing 54] , [drawing 55] and [drawing 56] with [drawing 57]; [drawing 58] with [drawing 59]; and [drawing 60] with [drawing 61] . Assays were run in primary human hepatocyte cultures by CellzDirect Invitrogen Inc. (Durham, NC), in collaboration with EPA.
Multiplexed Gene Expression in Human Primary Hepatocytes: This is a collection of multiplexed gene expression assays focused on Phase I and II metabolic enzymes and transporters. […] Fourteen gene targets were monitored by quantitative nuclease protection assay: six representative cytochrome P450 genes, four hepatic transporters, three Phase II conjugating enzymes, and one endogenous metabolism gene involved in cholesterol synthesis. Cells were exposed at 5 concentrations (0.004-40 µM) for 6, 24 or 48 hr. Gene targets are sentinels for five nuclear receptor signaling pathways: AhR, CAR, PXR, FXR, and PPARα. All gene are associated with nuclear receptor pathways: CYP1A1 and CYP1A2 with AHR; ABCB1, ABCG2, CYP2B6, CYP2C9, CYP2C19 and UGT1A1 with CAR; CYP3A4, GSTA2, SLCO1B1 and SULT2A1 with PXR; HMGCS2 with PPARA; and ABCB11 with FXR. […] Detailed description of the methods, data and analysis methods for this dataset will be presented in a separate publication.

[2] = test system: Rat Liver; settings: chronic rat study, liver; ref ToxRefDB; cited from earlier work
[3] = test system: Rat Liver; settings: chronic rat study, liver; ref ToxRefDB; cited from earlier work; remark: listed apart in the source
[4] = test system: Rat Liver; settings: chronic rat study, liver; ref ToxRefDB; cited from earlier work; remark: listed apart in the source
[5] = target: T1, LXRa (NR1H3) (Homo sapiens, UniProt Q13133); experiment: ATG_LXRa_TRANS: Factorial reporter gene assay (HepG2); format: cell-based; settings: HepG2
T1 construct: expressed in transfected cells; host or cells: HepG2
T1 sequence (Q13133 1-447): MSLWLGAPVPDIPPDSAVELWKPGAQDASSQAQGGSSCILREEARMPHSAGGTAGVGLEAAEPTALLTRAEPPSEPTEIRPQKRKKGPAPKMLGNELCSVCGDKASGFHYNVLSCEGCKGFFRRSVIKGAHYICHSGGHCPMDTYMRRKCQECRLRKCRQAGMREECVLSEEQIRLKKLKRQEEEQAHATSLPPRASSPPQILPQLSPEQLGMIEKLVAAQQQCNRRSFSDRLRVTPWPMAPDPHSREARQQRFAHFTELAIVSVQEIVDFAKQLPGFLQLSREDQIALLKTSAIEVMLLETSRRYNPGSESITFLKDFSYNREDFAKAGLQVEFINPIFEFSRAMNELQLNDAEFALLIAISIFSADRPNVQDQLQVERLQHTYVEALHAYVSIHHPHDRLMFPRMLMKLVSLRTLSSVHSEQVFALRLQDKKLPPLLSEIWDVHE
Protocol: (§1) A multiple reporter transcription unit (MRTU) library consisting of 48 transcription factor binding sites was transfected into the HepG2 human liver hepatoma cell line. In addition to the cis-acting reporter genes (CIS), a modification of the approach was used to generate a trans-system (TRANS) with a mammalian one-hybrid assay consisting of an additional 25 MRTU library reporting the activity of nuclear receptor super-family members. […] These assays were performed by Attagene Inc. (Morrisville NC) under contract to EPA.
(§2) In addition to the cis-acting reporter genes (CIS), a modification of the approach was used to generate a trans-system (TRANS) with a mammalian one-hybrid assay consisting of an additional 25 MRTU library reporting the activity of nuclear receptor super-family members. […] Chemicals were then tested in the CIS and TRANS assays at seven concentrations starting at the MTC and followed by three-fold serial dilutions. These assays were performed by Attagene Inc. (Morrisville NC) under contract to EPA. Detailed description of the methods, data and analysis methods for this dataset will be presented in a separate publication.

[6] = target: T2, PPARG (peroxisome proliferator-activated receptor gamma) (Homo sapiens, UniProt P37231); experiment: ATG_PPARg_TRANS: Factorial reporter gene assay (HepG2); format: cell-based; settings: HepG2
T2 construct: expressed in transfected cells; host or cells: HepG2
T2 sequence (P37231 1-505): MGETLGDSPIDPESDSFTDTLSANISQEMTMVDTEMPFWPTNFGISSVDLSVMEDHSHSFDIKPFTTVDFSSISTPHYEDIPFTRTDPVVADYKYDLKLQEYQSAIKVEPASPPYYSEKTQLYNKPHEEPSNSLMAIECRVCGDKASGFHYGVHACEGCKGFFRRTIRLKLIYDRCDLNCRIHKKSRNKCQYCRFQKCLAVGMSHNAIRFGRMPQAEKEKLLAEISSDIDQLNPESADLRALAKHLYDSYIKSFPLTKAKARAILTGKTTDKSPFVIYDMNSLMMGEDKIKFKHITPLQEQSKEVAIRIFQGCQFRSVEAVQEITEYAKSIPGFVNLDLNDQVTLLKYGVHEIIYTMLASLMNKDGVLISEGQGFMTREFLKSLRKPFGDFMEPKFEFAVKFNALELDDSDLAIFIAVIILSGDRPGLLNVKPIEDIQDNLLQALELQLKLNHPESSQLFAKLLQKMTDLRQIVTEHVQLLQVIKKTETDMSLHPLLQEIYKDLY
How it was run: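 HepG2 cells were transfected with a multiple reporter transcription unit (MRTU) library of 48 transcription factor binding sites for the cis-acting PXRE assay. The ERRg, FXR and PPARg assays used a trans mammalian one-hybrid system with a further 25-unit nuclear receptor MRTU library. Chemicals were tested at seven concentrations, from the MTC downward in three-fold steps.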

[7] = target: T3, AHR (aryl hydrocarbon receptor) (Homo sapiens, UniProt P35869); experiment: ATG_Ahr_CIS: Factorial reporter gene assay (multiplexed transcription reporter, HepG2); format: cell-based; settings: HepG2
T3 construct: endogenous in cells; host or cells: HepG2
T3 sequence (P35869 11-848): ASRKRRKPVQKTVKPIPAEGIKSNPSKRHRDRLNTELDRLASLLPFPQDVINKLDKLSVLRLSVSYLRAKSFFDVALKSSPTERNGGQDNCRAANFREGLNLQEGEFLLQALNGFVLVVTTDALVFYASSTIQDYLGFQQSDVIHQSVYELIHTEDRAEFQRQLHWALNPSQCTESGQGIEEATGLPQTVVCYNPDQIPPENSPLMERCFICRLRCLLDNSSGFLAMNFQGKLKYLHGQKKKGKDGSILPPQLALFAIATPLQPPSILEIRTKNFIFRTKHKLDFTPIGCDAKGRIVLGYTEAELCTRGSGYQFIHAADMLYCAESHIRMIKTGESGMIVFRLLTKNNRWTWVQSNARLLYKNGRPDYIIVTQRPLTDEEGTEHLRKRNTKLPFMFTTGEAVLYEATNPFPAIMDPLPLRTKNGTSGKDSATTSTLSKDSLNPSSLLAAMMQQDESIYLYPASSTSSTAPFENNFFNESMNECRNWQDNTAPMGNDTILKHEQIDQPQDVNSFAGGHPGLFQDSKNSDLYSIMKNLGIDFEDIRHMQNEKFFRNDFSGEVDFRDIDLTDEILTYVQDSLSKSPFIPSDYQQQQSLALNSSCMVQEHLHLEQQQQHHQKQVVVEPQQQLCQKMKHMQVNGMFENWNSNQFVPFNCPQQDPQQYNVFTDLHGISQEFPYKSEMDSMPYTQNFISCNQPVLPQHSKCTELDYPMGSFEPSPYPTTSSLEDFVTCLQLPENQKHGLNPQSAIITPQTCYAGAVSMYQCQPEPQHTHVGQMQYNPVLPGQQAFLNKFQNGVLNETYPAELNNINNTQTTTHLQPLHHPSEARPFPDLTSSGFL
Protocol: as §1, §2

[8] = target: T4, LXRb (NR1H2) (Homo sapiens, UniProt P55055); experiment: ATG_LXRb_TRANS: Factorial reporter gene assay (HepG2); format: cell-based; settings: HepG2
T4 construct: expressed in transfected cells; host or cells: HepG2
T4 sequence (P55055 1-460): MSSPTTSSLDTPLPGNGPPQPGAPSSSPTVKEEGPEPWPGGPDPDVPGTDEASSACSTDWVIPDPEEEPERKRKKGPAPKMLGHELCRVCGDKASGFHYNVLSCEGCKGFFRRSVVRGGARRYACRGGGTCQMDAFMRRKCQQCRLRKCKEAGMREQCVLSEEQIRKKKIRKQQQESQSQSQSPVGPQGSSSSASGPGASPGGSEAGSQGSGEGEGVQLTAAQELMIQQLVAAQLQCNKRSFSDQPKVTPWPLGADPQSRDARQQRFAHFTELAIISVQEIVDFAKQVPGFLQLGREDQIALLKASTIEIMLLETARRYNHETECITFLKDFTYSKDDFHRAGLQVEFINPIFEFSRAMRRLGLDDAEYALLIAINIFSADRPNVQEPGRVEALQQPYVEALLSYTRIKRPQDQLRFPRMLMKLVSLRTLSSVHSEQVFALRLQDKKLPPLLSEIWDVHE
Protocol: as §1, §2

SMILES | CLZD_HMGCS2_24 [1] | CHR_Rat_Liver_1_AnyLesion [2] | CHR_Rat_Liver_2_PreneoplasticLesion [3] | CHR_Rat_Liver_3_NeoplasticLesion [4] | ATG_LXRa_TRANS [5] | ATG_PPARg_TRANS [6] | ATG_Ahr_CIS [7] | ATG_LXRb_TRANS [8]
C[N+]1(C)CCCCC1.[Cl-] [row 193] | 5.889 | 0 | 0 | 0 |  |  |  | 
CN=C=S [row 205] |  |  |  |  | 4.495 | 4.215 |  | 
COC(=O)c1ccccc1S(=O)(=O)NC(=O)Nc1nc(C)nc(OC)n1 [row 210] |  | 0 | 0 | 0 |  |  | 4.337 | 4.215
